For assay [1], the system named is Human ES cells. The experiment in a line: Expansion of hES cells on r-laminin-521 with single cell dissociation passaging (Example 1). The format is cell-based. An excerpt:
In further aspects, the present disclosure provides a method to expand human embryonic stem cells in pluripotent state. It has been shown that human embryonic stem cells plated in single cell suspension on laminin-521 survived and proliferated at a higher rate than that of classical methods known in the art. After 3 passages (1 month) the cells passaged in a single cell suspension underwent the same number of cell divisions as that of cell cultures passaged in pieces on Matrigel after 20 passages (3 months). Therefore, the new method was advantageous in terms of time and labor, which may provide significant economical profits.
Human ES cells were cultured on r-laminin-521-coated laboratory dishes in chemically defined O3 medium (described in Rodin et al., Nature Biotechnol., vol. 28, pp. 611-615 (2010)) at 37° C. in 5% CO2. Cells were routinely passed once every 10-12 days by exposure to Trypsin-EDTA solution (GIBCO Invitrogen) for 5 minutes at 37° C. They were then gently pipetted to break into single-cell suspension and defined trypsin inhibitor (GIBCO Invitrogen) was added. The cell suspension was centrifuged […], the supernatant discarded, the cell pellet resuspended in prewarmed O3 medium, and cells were then passed through a 40 μm sieve. After that cells were plated on new r-laminin-521-coated dishes at a concentration 30 Kcells/cm^2 (1:25-1:30 split ratio). Cells were fed once a day with fresh medium prewarmed in an incubator for 1 hour, except for the first day after a passage, when only a few drops of fresh medium were added. Control cells of the same line were cultured on Matrigel (BD Biosciences) in O3 medium as described in Rodin et al., Nature Biotechnol., vol. 28, pp. 611-615 (2010). Control cells were passaged in pieces.

Assay [2] concerns hES cells. The assay can be described thus: Expression of pluripotency and differentiation markers (RT-PCR, FACS, immunofluorescence). The format is cell-based, human. The following applies: compared with cells on Matrigel passed as small clumps. As to the method: For immunofluorescence studies, ES cells were cultured and fixed in 8-well slide chambers (BD Biosciences) or 96-well plate wells by 4% paraformaldehyde, permeabilized by 0.1% Triton-X and blocked by 10% bovine fetal serum (GIBCO Invitrogen Corporation) in phosphate-saline buffer (PBS) containing 0.1% Tween-20 (Sigma-Aldrich, St. Louis, http://www.sigmaaldrich.com) for one hour. Incubation with primary antibody was performed for 1.5 hours at room temperature. Incubation with secondary antibody and 4,6-diamidino-2-phenylindole (DAPI, Molecular Probes) was performed for 40 minutes. Between incubations, the specimens were washed with 0.1% Tween-20 in PBS buffer three to five times. Specimens were preserved in a fluorescence mounting medium (Dako, Glostrup, Denmark, http://www.dako.com), and observed under a fluorescence microscope (Leica, Heerbrugg, Switzerland, http://www.leica.com).
Total RNA was isolated using Absolutely RNA Microprep Kit (Stratagene, La Jolla Calif., www.stratagene.com) according to the manufacturer's instructions. cDNA was synthesized using 0.2 μg of total RNA in 20 μl reaction mixture, containing oligo(dT)12-18 primers and Superscript II reverse transcriptase (GIBCO Invitrogen Corporation), according to the manufacturer's instructions. […] All data was analyzed with 7300 System SDS Software v 1.4. […]

Assay [3] deals with SCID mouse. The assay can be described thus: Teratoma formation. The following applies: HS181 13 passages, H1 12 passages in O3; H1 7 passages in TeSR2. The class given is in vivo. As to the method: Teratoma formation experiments were performed by implantation of approximately 10^6 cells beneath the testicular capsule of a young (7-week-old) severe combined immunodeficiency (SCID) mouse. Three animals per each cell line were used. Teratoma growth was observed by weekly palpation, and the mice were sacrificed eight weeks after the implantation. The teratomas were fixed, and sections were stained with hematoxylin and eosin (HE) or with hematoxylin, eosin and PAS (HE-PAS). […] All animal experiments were performed at the infection-free animal facility of the Karolinska University Hospital in accordance with ethical committee approval.

The test system of assay [4] is ES cells. The experiment in a line: Embryoid body formation. The format is cell-based, human. The following applies: same three cultures as teratoma test. As to the method: ES cells from LN-521 coated cell culture dishes were exposed to TrypLE™Select for one minute at 37° C., 5% CO2, washes two times with a medium, broken into large pieces and cultured in suspension in low adhesion plates. The medium used for this was Knockout DMEM (GIBCO Invitrogen Corporation) supplemented with 2 mM L-glutamine, 20% fetal calf serum (GIBCO Invitrogen Corporation), 0.1 mM β-mercaptoethanol (GIBCO Invitrogen Corporation) and 1% non-essential amino acids (GIBCO Invitrogen Corporation). After 1-2 weeks in suspension, the embryoid bodies were transferred onto gelatin coated tissue cell culture 96-well plates (Sarstedt), cultured for 1-2 weeks, then fixed, stained with antibodies against markers of all three embryonic germ line layers (smooth muscle actin, MAP-2 and α-fetoprotein) and analyzed as described above for immunofluorescence.

For assay [5], the system named is hES cells. The assay can be described thus: In vivo imaging and migration assay. The format is cell-based, human. The protocol: 24-well plates were coated by extracellular matrix proteins and blocked by O3 medium containing bovine serum albumin. The ES cells were plated at cell density of 30,000-40,000 cells/cm^2 onto extracellular matrix-coated plates and left to adhere for half an hour in a cell incubator. After that, the plate was transferred into high content imaging system Operetta (PerkinElmer) equipped with environmental control unit, which allowed to keep 37° C., 5% CO2. For two movies that were made, the brightfield images were taken once in 15 minutes during 24 hours after plating using Harmony software (PerkinElmer), exported, and analyzed using ImageJ software (NIH, the US). For migration assay the images were taken every seven minutes during 18 hours after plating. Images acquired between the fifth and seventh hours after plating were analyzed using MTrackJ plug-in (University Medical Center, Rotterdam, The Netherlands). 100 attached cells on each coating were traced and mean distances from the current to the previous point of the track were calculated. Error bars show standard error of the mean s.e.m. (n=100).

Regarding “LN-521: protein formed by joining α5, β2 and γ1 laminin chains; human recombinant, produced in HEK293 cells”, the “passages in single cell suspension giving the same number of cell divisions as cultures passaged in pieces on Matrigel after 20 passages (3 months)” value in assay [1] (1 month) turned out to be 3 passages. Further, in assay [1] (1 month, FIG. 8), the “passages to the same number of cell doublings as stem cells after 20 passages (100 days) by conventional methods” value was 3 passages. Further, the “increase in the number of cells versus time compared with Matrigel” value in assay [1] (FIG. 8) is recorded as “much faster rate”. Moreover, the “proliferation rate compared with classical methods” value in assay [1] (plated in single cell suspension) was “higher rate”. In addition, the “passages of robust proliferation at a stable and high rate” value in assay [1] (single cell passaging every 10-12 days, 1:25 to 1:30, 3 months) is “at least 9 passages”. Besides, the “expression levels of pluripotency markers Oct4, Nanog and SSEA4” value in assay [2] was “stable expression levels”. For the same substance, the “histology of teratomas formed in SCID mice” value in assay [3] is “development of tissues containing all three germ lineages”. Also, the “differentiation in vitro, embryoid bodies expressing markers of mesoderm, ectoderm and endoderm” value in assay [4] is “retained the competence to form embryoid bodies”. For the same substance, the “cell migration by imaging compared with Matrigel” value in assay [5] (24 hours imaging) was “much faster”. Also, the “motility of hES cells compared with other coatings” value in assay [5] (between the fifth and seventh hours after plating, FIG. 14) was “higher than that of the cells on other coatings”.

The values above are taken from patent US10240124B2, “Cell culture substrate comprising a laminin and a cadherin” (BioLamina AB, priority 2011, dated 2019).
